Structures can show the parent of a compound that is named as a salt. Where two headings read alike, the source gives them in different places.
Assays:
paw swelling = experiment: Reverse passive Arthus reaction, inhibition of paw swelling after oral dosing; format: in vivo; conditions: Rattus norvegicus, po, 30 mg/kg oral, rats
Method: The reverse passive Arthus reaction is initiated by the interaction of antigen and antibody resulting in the formation of a precipitating immune complex, followed by fixation of complement, accumulation of leukocytes, edema and hemorrhage. The immunopathology of rheumatoid arthritis involves many of the parameters found in this reaction. Test groups (5 rats per group) are dosed orally with compounds one hour prior to the sub-plantar injection into the right hind paw of rabbit anti-ovalbumin antibody (50 μg/0.1 ml). Immediately afterwards, ovalbumin (Sigma, #5503) (5 mg/0.2 ml) is injected i.v. via the tail vein. The right hind paw volume is measured at hourly intervals, from one to four hours after the injection of the immune reactants. The change in paw volume for each animal is calculated by subtracting zero hour paw volume (before injection) from the paw volume at the time of measurement. The mean of these values is calculated for each group. Results are expressed in Table I below as percent inhibition of paw swelling compared to untreated controls.

human PMN = experiment: Chemotaxis of human peripheral leukocytes (human PMN chemotaxis, FMLP as chemoattractant); format: cell-based; conditions: Leukocyte, FMLP 1×10^-8 M; for inhibition at 1 µM: read-out: PERCENT INHIBITION (human PMN chemotaxis) 1 μM; for inhibition at 0.01 µM: read-out: PERCENT INHIBITION (human PMN chemotaxis) 0.01 μm
Method: A) Equal parts of citrated peripheral venous blood drawn from a normal volunteer were mixed with saline containing 6% dextran. The mixture was allowed to sediment for 30-40 minutes in a 50 ml polypropylene centrifuge tube. B) The plasma was decanted and centrifuged at 1500 rpm for 7 minutes and washed with saline. C) The supernatant was decanted and the contaminating red blood cells were eliminated by adding ice cold lysing solution and allowing the cell suspension to stand on ice for 5 minutes. […] E) The tubes were centrifuged at 400g for 30 minutes at room temperature. F) The supernatant was decanted and the PMNs (pelleted on the bottom of the tubes) were washed with saline and with Hanks buffer. The cells were adjusted to a final concentration of 3×10^6 cells/ml in Hanks buffer containing 0.5% BSA. 1) Chemoattractant: serial dilution was prepared of the stocks (10^-3 M) N-Formyl-methionyl-leucylphenylalanine in Hanks buffer and 130 μl of 1×10^-8 M solution was pipetted into the lower bottom chamber. The bottom chamber of the negative control was filled with saline. 2) Placed Millipore membranes to completely cover the wells and allowed the liquid to absorb. 3) Placed on upper chamber and tighten retaining nuts. 1) Sample preparation: Mixed equal volume of sample diluted in Hanks buffer containing […] and cell suspension in a test tube prior to pipetting 200 μl into appropriate duplicate chambers. 2) Incubated chambers at 37° C. for 40-60 minutes. 10) Three to five fields per membrane were counted with the aid of the Image Analyser (optimal 40-10). Special effort was made to select a standard for evaluating the cell monolayer in which the distribution of cells in the field of view is uniform. The number of cells at each […] level beneath the selected monolayer was then counted and the chemotactic index (CI) calculated by multiplying the individual cell count at each level by their corresponding depth of penetration, and taking the sum of these numbers. 11) The results in Table II are recorded as percent inhibition. Percent inhibition by each thienylbenzylamime was calculated as follows: [formula] The CI of the control was determined by conducting the assay with N-formyl-methionyl-leucylphenylalanine (FMLP) alone without any thienlbenzylamine. The background was determined by conducting the assay without any FMLP.

[1] = Hygroscopicity and stability in air of the hydrochloride salt; format: physicochemical
Method: D. Hydrochloride salt of 5-chloro-2[(2-dimethylaminomethylphenyl) hydroxymethyl]thiophene 1.0 g of the 5-chloro-2-[(2-dimethylaminomethylphenyl)hydroxymethyl]thiophene prepared in C was dissolved in ether. The etheral solution was cooled to -80° C. Upon addition of an ethereal HCl solution a white precipitate was obtained which was immediately filtered under N2 and dried in high vacuum without heating.

[2] = 2 h, 2 hours, read-out: % INHIBITION (of paw swelling) HOUR 2
[3] = 3 h, 3 hours, read-out: % INHIBITION (of paw swelling) HOUR 3
[4] = 4 h, 4 hours, read-out: % INHIBITION (of paw swelling) HOUR 4

hygroscopicity [1] | stability in air ([1]; in air) | Structure (SMILES) | inhibition in vivo at 30 mg/kg (paw swelling; [2]) [%] | inhibition in vivo at 30 mg/kg (paw swelling; [3]) [%] | inhibition in vivo at 30 mg/kg (paw swelling; [4]) [%] | inhibition at 1 µM (human PMN) [%] | inhibition at 0.01 µM (human PMN) [%]
– | – | CN(C)Cc1ccccc1C(=O)c1ccc(Cl)s1 [Compound 11, 5-chloro-2-(2-dimethylaminomethylbenzoyl)thiophene] | 40.5 | 18.8 | 1.5 | 33 | 37
– | – | CN(C)Cc1ccccc1Cc1ccc(Cl)s1 [Compound 12, 5-chloro-2-(2-dimethylaminomethylphenylmethyl)thiophene] | 65.8 | 51.1 | 25.5 | 52 | 54
– | – | CCN(CC)Cc1ccccc1C(O)c1ccc(Cl)s1 (stereo not shown) [Compound 6, 5-chloro-2-[(2-diethylaminomethylphenyl)hydroxymethyl]thiophene] | 46 | 35.9 | 0 | 25 | 24
extremely hygroscopic | unstable in air | CN(C)Cc1ccccc1C(O)c1ccc(Cl)s1.Cl (stereo not shown) [Compound 2, 5-chloro-2-[(2-dimethylaminomethylphenyl)hydroxymethyl]thiophene hydrochloride] | – | – | – | 76 | 57
– | – | COC(c1ccc(Cl)s1)c1ccccc1CN(CCO)CCO (stereo not shown) [Compound 9, 5-chloro-2-[2-(N,N-diethanolaminomethyl-phenyl)methoxymethyl]thiophene] | 20.8 | 3.6 | 0 | 49 | 23
– | – | CN(C)Cc1ccccc1C(O)c1cccs1 (stereo not shown) [Compound 3, 2-[(2-Dimethylaminomethylphenyl)hydroxymethyl]thiophene] | 43.3 | 22.8 | 0 | 39 | 14
– | – | CN(C)Cc1ccccc1C(O)c1ccsc1 (stereo not shown) [Compound 21] | 39 | 18 | 30 | 54 | 35
– | – | CN1Cc2ccccc2C1c1ccc(Cl)s1 (stereo not shown) [Compound 14] | 64.4 | 49.9 | 17.8 | 51 | 0
– | – | CN(CCO)Cc1ccccc1C(O)c1ccc(Cl)s1 (stereo not shown) [Compound 8] | 26.9 | 18.2 | 2.8 | 42 | 35
– | – | CCOC(c1ccc(Cl)s1)c1ccccc1CN(C)C (stereo not shown) [Compound 7, 5-chloro-2-[(2-dimethylaminomethylphenyl)ethoxymethyl]thiophene] | 24.2 | 0 | 0 | 41 | 37
– | – | CN(C)Cc1ccccc1C(O)c1ccsc1Cl (stereo not shown) [Compound 22, 2-chloro-3-[(2-N,N-dimethylaminomethylphenyl)hydroxymethyl]thiophene hydrochloride] | 22 | 0 | 0 | 29 | –
– | – | Cc1ccc(C(O)c2ccccc2CN(C)C)s1 (stereo not shown) [Compound 4, 2-[(2-dimethylaminomethylphenyl)hydroxymethyl]-5-methyl-thiophene] | 43.1 | 19.8 | 4.2 | 55 | 12
– | – | CN(C)Cc1ccccc1C(O)c1csc(Br)c1 (stereo not shown) [Compound 23, 5-bromo-3-[(2-N,N-dimethylaminomethylphenyl)hydroxymethyl] thiophene hydrochloride] | 72 | 66 | 44 | 34 | –
– | – | CN(C)Cc1ccccc1C(C)(O)c1ccc(Cl)s1 (stereo not shown) [Compound 33, N,N-dimethyl-2-[1-(5-chlorothien-2-yl)-1-hydroxyethyl]benzylamine hydrochloride] | 66 | 60 | 40 | 26 | 26
